In brackets after ≈: the same amount, converted by molar mass. Where two headings read alike, the source gives them in different places.
Assays:
E. coli Human ATCC 28922 = assay: MIC determination, E. coli human ATCC 28922; type: cell-based; conditions: Escherichia coli, ATCC28922; Gram-negative; Mueller-Hinton medium, 24 h at 37° C.
Method in brief: (§1)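 Broth microdilution in Mueller-Hinton medium; compounds from 5 mg/mL stock in DMSO/methanol (50/50), twofold serial dilutions, inoculum adjusted to OD 0.01. Plates incubated 24 h at 37 °C, humid atmosphere; OD read at 620 nm to derive MIC, duplicates.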

[1] = system: P. aeruginosa Human ATCC 27853; assay: MIC determination, P. aeruginosa human ATCC 27853; type: cell-based; conditions: Pseudomonas aeruginosa, ATCC27853; Gram-negative; Mueller-Hinton medium, 24 h at 37° C.
Method in brief: as §1

[2] = system: S. aureus Human ATCC 25923; assay: MIC determination, S. aureus human ATCC 25923; type: cell-based; conditions: Staphylococcus aureus, ATCC25923; Gram-positive; Mueller-Hinton medium, 24 h at 37° C.
Method in brief: as §1

C. albicans = assay: Antifungal activity, cascade microdilution; type: cell-based; conditions: Candida albicans, 24 h, read-out: IC50 (μg/mL) C. albicans
[3] = system: S. intermedius Animal (1051997); assay: MIC determination, S. intermedius animal (1051997); type: cell-based; conditions: Staphylococcus intermedius; Gram-positive; Mueller-Hinton medium, 24 h at 37° C.
Method in brief: as §1

E. coli Animal (1956) = assay: MIC determination, E. coli animal (1956); type: cell-based; conditions: Escherichia coli; Gram-negative; Mueller-Hinton medium, 24 h at 37° C.
Method in brief: as §1

[4] = system: P. aeruginosa Animal (1051575); assay: MIC determination, P. aeruginosa animal (1051575); type: cell-based; conditions: Pseudomonas aeruginosa; Gram-negative; Mueller-Hinton medium, 24 h at 37° C.
Method in brief: as §1

[5] = system: E. faecalis Human ATCC 29212; assay: MIC determination, E. faecalis human ATCC 29212; type: cell-based; conditions: Enterococcus faecalis, ATCC29212; Gram-positive; Mueller-Hinton medium, 24 h at 37° C.
Method in brief: as §1

CHO-K1 cells = assay: WST1 cytotoxicity test on CHO-K1 cells; type: cell-based, Chinese hamster; conditions: Cricetulus griseus
Method in brief: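 CHO-K1 cells pre-grown 24 h, then exposed to increasing compound concentrations in duplicate for 24 h at 37° C, 5% CO2. Viability read after 20 min with 10% WST-1 in PBS at 450 nm; IC50 from nonlinear regression as concentration cutting viability 50%.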

P. aeruginosa (1051575) [6] = assay: Potentiation of doxycycline activity (combination MIC); type: cell-based, Pseudomonas aeruginosa; conditions: in presence of doxycycline 2 μg/mL; 24 hours at 37° C.
S. aureus Animal (340) = assay: MIC determination, S. aureus animal (340); type: cell-based; conditions: Staphylococcus aureus; Gram-positive; Mueller-Hinton medium, 24 h at 37° C.
Method in brief: as §1

P. aeruginosa (1051575) [7] = assay: Potentiation of chloramphenicol activity (combination MIC); type: cell-based, Pseudomonas aeruginosa; conditions: chloramphenicol 2 μg/mL; concentration of compound required to restore antibiotic activity
Protocol: This method requires the use of a 96-well plate: 100 μL of a liquid culture medium are placed in each well and then seeded with the microbial suspension prepared previously. The required volume to be seeded is calculated for an OD of 0.01, which corresponds to about 5×10^6 bacteria in each well. In this plate, the first line corresponds to a negative control (200 μL of sterile culture medium in each well), the second line corresponds to a positive control (100 μL of sterile culture medium+100 μL of the bacterial suspension), and the third line contains 192 μL of culture medium; 8 μL of compound of formula (I) to be tested are placed in each well. Thereafter, a cascade dilution is performed from this line. […] 92 μL of bacterial suspension are then added to lines 3 to 8. The results are read (the determination of the MIC (2 μg/mL of doxycycline) in the presence of X g/mL of compound of formula (I)) after 24 hours of incubation at 37° C. under a humid atmosphere. After 24 hours of incubation at 37° C., 40 μL of nitro tetrazolium iodide are added to each well to reveal the presence of live bacteria by staining the medium pink.
The procedure is identical to that indicated in Example 5 above. […]
(§2) The results are given in table V. They indicate the concentration of compound of formula (I) required to be able to restore the activity of the antibiotic under consideration.

P. aeruginosa (1051575) [8] = assay: Potentiation of erythromycin activity (combination MIC); type: cell-based, Pseudomonas aeruginosa; conditions: erythromycin 2 μg/mL; concentration of compound required to restore antibiotic activity
Protocol: This method requires the use of a 96-well plate: 100 μL of a liquid culture medium are placed in each well and then seeded with the microbial suspension prepared previously. The required volume to be seeded is calculated for an OD of 0.01, which corresponds to about 5×10^6 bacteria in each well. In this plate, the first line corresponds to a negative control (200 μL of sterile culture medium in each well), the second line corresponds to a positive control (100 μL of sterile culture medium+100 μL of the bacterial suspension), and the third line contains 192 μL of culture medium; 8 μL of compound of formula (I) to be tested are placed in each well. Thereafter, a cascade dilution is performed from this line. L of a doxycycline solution (1 mg dissolved in 20 mL) are then added to each well of lines 3 to 8 to obtain a final antibiotic concentration of 2 μg/mL. 92 μL of bacterial suspension are then added to lines 3 to 8. The results are read (the determination of the MIC (2 μg/mL of doxycycline) in the presence of X g/mL of compound of formula (I)) after 24 hours of incubation at 37° C. under a humid atmosphere. After 24 hours of incubation at 37° C., 40 μL of nitro tetrazolium iodide are added to each well to reveal the presence of live bacteria by staining the medium pink.
The procedure is identical to that indicated in Example 5 above. 8 μL of an antibiotic solution under consideration (1 mg dissolved in 20 mL) are added to obtain a final antibiotic concentration of 2 μg/mL instead of 8 μL of a doxycycline solution.
as §2

[9] = CHO-K1, 24 h, read-out: IC50 (μg/mL) CHO
[10] = CHO-K1, read-out: IC50 (μg/mL) CHO

| SMILES | MIC (E. coli Human ATCC 28922) [µg/mL] | MIC [1] [µg/mL] | MIC [2] [µg/mL] | IC50 (C. albicans) [µg/mL] | MIC [3] [µg/mL] | MIC (E. coli Animal (1956)) [µg/mL] | MIC [4] [µg/mL] | MIC [5] [µg/mL] | IC50 (CHO-K1 cells; [9]) [µg/mL] | IC50 (CHO-K1 cells; [10]) [µg/mL] | MIC - P. aeruginosa (1051575): content of compound of formula (I) to restore the doxycycline activity (at 2 μg/mL) (P. aeruginosa (1051575) [6]) [µg/mL] | MIC (S. aureus Animal (340)) [µg/mL] | MIC P. aeruginosa (1051575) compound + chloramphenicol (P. aeruginosa (1051575) [7]) [µg/mL] | MIC P. aeruginosa (1051575) compound + erythromycin (P. aeruginosa (1051575) [8]) [µg/mL] |
| --- | --- | --- | --- | --- | --- | --- | --- | --- | --- | --- | --- | --- | --- | --- |
| CC(C)NC(=O)CC[C@@H](C)[C@H]1CCC2C3C(C[C@H](O)[C@@]21C)[C@@]1(C)CC[C@H](NCCCNCCCNCCCN)CC1C[C@H]3O (stereo partly drawn) [(4), 3β-norspermino-N-isopropylcholamide] | 16 (≈ 25.8 µM) | 64 (≈ 103 µM) | 8 (≈ 12.9 µM) | 8 (≈ 12.9 µM) | 4 (≈ 6.45 µM) | 32 (≈ 51.6 µM) | 32 (≈ 51.6 µM) | 32 (≈ 51.6 µM) | 65 (≈ 105 µM) | 170 (≈ 274 µM) | 1 | 16 (≈ 25.8 µM) |  |  |
| CNC(=O)CC[C@@H](C)[C@H]1CCC2C3C(CC[C@@]21C)[C@@]1(C)CC[C@H](NCCCNCCCN)CC1C[C@H]3O (stereo partly drawn) [(11), 3β-norspermidino-N-methylchenodeoxycholamide] | 13 (≈ 25.1 µM) | 12 (≈ 23.1 µM) | 6 (≈ 11.6 µM) | 3 (≈ 5.78 µM) | 1 (≈ 1.93 µM) | 13 (≈ 25.1 µM) | 6 (≈ 11.6 µM) | 13 (≈ 25.1 µM) | 20 (≈ 38.5 µM) | 20 (≈ 38.5 µM) | 2 | 3 (≈ 5.78 µM) |  |  |
| CC(C)NC(=O)CC[C@@H](C)[C@H]1CCC2C3CCC4C[C@@H](NCCCN5CCN(CCCN)CC5)CC[C@]4(C)C3CC[C@@]21C (stereo partly drawn) [(19), 3β-(1,4-bis(3-aminopropyl)piperazine)-N-isopropyllithocholamide] | 30 (≈ 50 µM) | 120 (≈ 200 µM) | 8 (≈ 13.3 µM) | 4 (≈ 6.67 µM) | 4 (≈ 6.67 µM) | 30 (≈ 50 µM) | 30 (≈ 50 µM) | 15 (≈ 25 µM) | 12 (≈ 20 µM) | 12 (≈ 20 µM) | 8 | 4 (≈ 6.67 µM) |  |  |
| CC(C)N(C(=O)CC[C@@H](C)[C@H]1CCC2C3C(CC[C@@]21C)[C@@]1(C)CC[C@H](NCCCNCCCNCCCN)CC1C[C@H]3O)C(C)C (stereo partly drawn) [(40), 3β-norspermino-N,N-diisopropylchenodeoxycholamide] | 32 (≈ 49.5 µM) | 8 (≈ 12.4 µM) | 4 (≈ 6.19 µM) | 1 (≈ 1.55 µM) | 2 (≈ 3.1 µM) | 8 (≈ 12.4 µM) | 8 (≈ 12.4 µM) | 2 (≈ 3.1 µM) |  |  | 2 | 2 (≈ 3.1 µM) |  |  |
| CC(C)NC(=O)CC[C@@H](C)[C@H]1CCC2C3C(CC[C@@]21C)[C@@]1(C)CC[C@H](NCCCN(CCCN)CCCN)CC1C[C@H]3O (stereo partly drawn) [(46), 3β-(tris(3-aminopropyl)amine)-N-isopropylchenodeoxycholamide] | > 120 | 60 (≈ 99.3 µM) | 8 (≈ 13.2 µM) | 1 (≈ 1.66 µM) | 2 (≈ 3.31 µM) | 30 (≈ 49.7 µM) | 120 (≈ 199 µM) | 30 (≈ 49.7 µM) | 50 (≈ 82.8 µM) | 50 (≈ 82.8 µM) | 2 | 2 (≈ 3.31 µM) |  |  |
| C[C@H](CCC(=O)NC1CCCCC1)[C@H]1CCC2C3C(CC[C@@]21C)[C@@]1(C)CC[C@H](NCCCN(CCCN)CCCN)CC1C[C@H]3O (stereo partly drawn) [(47), 3β-(tris(3-aminopropyl)amine)-N-cyclohexylchenodeoxycholamide] | 130 (≈ 202 µM) | 130 (≈ 202 µM) | 4 (≈ 6.21 µM) | 2 (≈ 3.11 µM) | 8 (≈ 12.4 µM) | 32 (≈ 49.7 µM) | 32 (≈ 49.7 µM) | 8 (≈ 12.4 µM) |  |  | 2 | 8 (≈ 12.4 µM) |  |  |
| CC(C)NC(=O)CC[C@@H](C)[C@H]1CCC2C3CCC4C[C@@H](NCCCN(CCCN)CCCN)CC[C@]4(C)C3CC[C@@]21C (stereo partly drawn) [(49), 3β-(tris(3-aminopropyl)amine)-N-isopropyllithocholamide] | 120 (≈ 204 µM) | 120 (≈ 204 µM) | 4 (≈ 6.8 µM) |  | 2 (≈ 3.4 µM) | 30 (≈ 51 µM) | 60 (≈ 102 µM) | 15 (≈ 25.5 µM) | 6 (≈ 10.2 µM) |  | 4 | 4 (≈ 6.8 µM) | 4 | 30 |
| CC(C)N(C(=O)CC[C@@H](C)[C@H]1CCC2C3C(CC[C@@]21C)[C@@]1(C)CC[C@H](NCCCNCCCCNCCCN)CC1C[C@H]3O)C(C)C (stereo partly drawn) [(50), 3β-spermino-N,N-diisopropylchenodeoxycholamide] | > 130 | 17 (≈ 25.8 µM) | 4 (≈ 6.06 µM) |  | 2 (≈ 3.03 µM) | 17 (≈ 25.8 µM) | 17 (≈ 25.8 µM) | 4 (≈ 6.06 µM) | 25 (≈ 37.9 µM) |  | 2 | 2 (≈ 3.03 µM) | 2 | 4 |
| C[C@H](CCC(=O)NC1CCCCC1)[C@H]1CCC2C3C(CC[C@@]21C)[C@@]1(C)CC[C@H](NCCCNCCCCNCCCN)CC1C[C@H]3O (stereo partly drawn) [(51), 3β-spermino-N-cyclohexylchenodeoxycholamide] | 105 (≈ 160 µM) | 16 (≈ 24.3 µM) | 4 (≈ 6.08 µM) |  | 1 (≈ 1.52 µM) | 16 (≈ 24.3 µM) | 16 (≈ 24.3 µM) | 2 (≈ 3.04 µM) | 13 (≈ 19.8 µM) |  | 2 | 2 (≈ 3.04 µM) | 2 | 8 |
| CC(C)N(C(=O)CC[C@@H](C)[C@H]1CCC2C3C(CC[C@@]21C)[C@@]1(C)CC[C@H](NCCCN(CCCN)CCCN)CC1C[C@H]3O)C(C)C (stereo partly drawn) [(56), 3β-(tris(3-aminopropyl)amine)-N,N-diisopropylchenodeoxycholamide] | 65 (≈ 101 µM) | 130 (≈ 201 µM) | 4 (≈ 6.19 µM) | 4 (≈ 6.19 µM) | 4 (≈ 6.19 µM) | 16 (≈ 24.8 µM) | 65 (≈ 101 µM) | 2 (≈ 3.1 µM) |  |  | 2 | 4 (≈ 6.19 µM) |  |  |
